Source: US11304964B2, “Bolaamphiphilic compounds, compositions and uses thereof” (priority 2012, dated 2022)

Experiments:
[1] = Tenofovir concentration in brain after i.v. tenofovir-loaded vesicles (HPLC-UV of brain homogenate); format: in vivo, mice
Source text: Protein precipitation was accomplished by adding trichloroacetic acid (TCA) at a final concentration of 3.75%, providing a clear supernatant by centrifugation. This supernatant was neutralized by 1% sodium hydroxide solution and the neutralized extract was examined by HPLC with a UV detector, using an isocratic method with 10% aceto-nitrile and 90% buffer of triethyl amine in water adjusted to pH 5.4 with concentrated phosphoric acid. When applied to a solution of tenofovir in buffer without the brain extract, the retention time was 17.3 min (FIG. 8 Panel A). […] The broad peak at 22.5 min overlapped the peak of the tenofovir at 17 min (compare FIG. 8 Panel B to FIG. 8 Panel A) and would interfere with the determination of tenofovir concentration in the extract. To narrow the peak of the endogenous compound with the Rt of 22.5 min, a solid phase extraction (SPE) method was employed, using BOND ELUT-C18 column. After the treatment with SPE some peaks disappeared and the others became narrower.
Different concentrations of tenofovir were then spiked into a supernatant obtained after deproteinization of brain homogenate with TCA and centrifugation. The supernatant with the tenofovir was loaded into the SPE cartridge, which was conditioned by 3 ml methanol and 3 ml of 150 mM ammonium acetate (pH=5.0). After washing with 900 μl of 100 mM ammonium acetate (pH=7.0), in order to obtain less interference at the retention time of each component, the column was eluted by 500 μl of methanol to collect the tenofovir. The solvent was removed under nitrogen at 60° C. The extracted sample was dissolved into 120 μl of water and methanol solution (90:10, v/v) and injected into the HPLC.
In view of the conditions for the determination of tenofovir in brain homogenates established herein, mice were injected with 7.5 mg/kg of tenofovir encapsulated in vesicles prepared as for Table 5 above that contained the optimal GLH-55b and SA and brain homogenates were prepared from the brains of these mice for the determination of tenofovir concentrations. […] This concentration value is significant and should have a therapeutic affect against HIV.
A subsequent in vivo experiment was carried out as above but with testing over different periods of time from of 15 min, 30 min, 60 min and 120 min after IV injection the amount of tenofovir was in micro gr/grm brain 6.2, 2.2, 1.0 and 0.5 respectively. While the free tenofovir injected had levels of 0 less than 0.2 micrograms/gr brain. Thus indicating the efficacy of the vesicles to delivery tenofovir to the brain.

[2] = Pharmacokinetic studies, second set (LC-MS, brain); format: in vivo; settings: pyrido pretreated mice
Method: Another group of mice were injected with free tenofovir. The total dose of tenofovir that was injected to the mice that received encapsulated tenofovir was […], out of which 7.5 mg/kg was encapsulated tenofovir. The total dose of tenofovir that was injected to the mice that received free tenofovir was 75 mg/kg. All animals were pretreated with 0.5 mg/kg pyrido. Results are mean of 5 mice±SD.
In the second set of the PK studies, all the mice were pretreated with pyrido 15 min prior to the injection of 7.5 mg/kg tenofovir encapsulated in optimal vesicles or with 75 mg/kg free tenofovir with no vesicles.

[3] = CNS penetration effectiveness index; cited from earlier work
[4] = Pharmacokinetic studies, first set (LC-MS, blood and brain); settings: for half-life: mouse, iv, 34 mg/kg
Method: The chromatographic separation was performed with an HPLC Agilent 1100 instrument and Auto-sampler G 1329A ALS 1200 Series with Frizzier G1330B FC/ALS Therm, at a temperature of 4° C., using a reverse phase Kromasile 100A C18 250×2.0 (5 μm) column at 30° C. under gradient conditions. The mobile phase consisted of two solvents: (A) acetonitrile and (B) 0.5% formic acid in water and was operated under the following conditions:
The MS/MS detector was an Ion Trap MS Esquire 3000 Plus (Bruker Daltonics), operating in the ESI positive polarity mode. The internal standard was 2′-deoxyadenosine 5′-phosphate.
After establishing conditions for the LC-MS as described above, brain homogenate and blood samples were prepared and spiked known concentrations of tenofovir and a fixed concentration of the internal standard into the blood samples and the brain homogenates. The specimens were then processed by adding 180 μL of 10% Tri Chloro Acetic acid (TCA) to 300 μL of the homogenate followed by centrifugation to obtain a clear solution of blood or brain extracts. The supernatant that was obtained by the centrifugation was neutralized with 200 μL of 1% NaOH. The MS signals that were obtained from each sample were plotted as a function of the spiked tenofovir concentration to obtain calibration curves for the blood (FIG. 17A) and for the brain (FIG. 17B).
For the PK studies, vesicles optimized as described above were used for the delivery of tenofovir into the brain. […] The vesicles were prepared by film hydration followed by sonication using a HEPES hydration buffer.
In the first set of the PK experiments, mice (average weight was 22 g per mouse) were injected with vesicles that contained encapsulated tenofovir or with empty vesicles followed by free tenofovir (4 mice per group). […] The dose of the total tenofovir was 34 mg/kg, out of which 6.8 mg/kg was encapsulated (only when encapsulated tenofovir was injected). […] Before the injection of the test material, mice were pretreated with 0.5 mg/kg pyridostigmine to inhibit choline esterases in the blood (unless otherwise stated), since vesicles that contain GLH-20 release their content in presence of choline esterases. At various times after the injection (15, 30, 75, 120 and 240 min), blood samples were withdrawn and the mice were perfused with 10 mL PBS and sacrificed. Brains were immediately removed after sacrificing the mice and brain homogenates were prepared by homogenizing the brains in PBS (4 mL PBS per gram brain). Extracts of the homogenates were then prepared by adding 180 μL of 10% TCA to 300 μL of the homogenate followed by centrifugation to obtain a clear solution of the brain extract. The supernatant that was obtained by the centrifugation was neutralized with 200 μL of 1% NaOH. Tenofovir concentration in the clear brain extract was determined by LC-MS, using the calibration curve which is described above in FIG. 17. The blood samples were centrifuged to separate the serum from the blood cells and processed in the same way as the brain homogenates.

C[C@H](Cn1cnc2c(N)ncnc21)OCP(=O)(O)O [tenofovir, ({[(2R)-1-(6-amino-9H-purin-9-yl)propan-2-yl]oxy}methyl)phosphonic acid]
concentration of tenofovir in the brain ([1]; mice i.v., 7.5 mg/kg tenofovir encapsulated in vesicles with GLH-55b and SA, estimated from calibration curve): 22.7 μg/gr brain | level of tenofovir in brain ([1]; mice, free tenofovir injected IV): less than 0.2 micrograms/gr brain | concentration at 15 min ([1]; mouse, brain, 7.5 mg/kg, mice, encapsulated tenofovir in vesicles, 15 min after IV injection, read-out: amount of tenofovir in brain): 6200 ng/g | concentration at 30 min ([1]; mouse, brain, 7.5 mg/kg, mice, encapsulated tenofovir in vesicles, 30 min after IV injection, read-out: amount of tenofovir in brain): 2200 ng/g | concentration at 60 min ([1]; mouse, brain, 7.5 mg/kg, mice, encapsulated tenofovir in vesicles, 60 min after IV injection, read-out: amount of tenofovir in brain): 1000 ng/g | concentration at 120 min ([1]; mouse, brain, 7.5 mg/kg, mice, encapsulated tenofovir in vesicles, 120 min after IV injection, read-out: amount of tenofovir in brain): 500 ng/g | concentration of tenofovir in the brain ([2]; 7.5 mg/kg tenofovir encapsulated in optimized V-Smart vesicles, all time points up to 2 hours, vs estimated therapeutic threshold): > 100 ng/mL | concentrations of tenofovir in the brain ([2]; free drug 75 mg/kg, no vesicles, detection limit 40 ng/ml): below the measurable level | concentration at 60 min ([2]; mouse, brain, intravenous, 7.5 mg/kg encapsulated in optimized V-Smart vesicles, 60 min after the injection, read-out: concentration of tenofovir in the brain): ~1000 ng/mL | concentration at 15 min ([2]; mouse, brain, intravenous, 7.5 mg/kg encapsulated in optimized V-Smart vesicles, after 15 min, read-out: concentration of tenofovir in the brain): > 6000 ng/g | CPE rating [3]: 1 | tenofovir concentration in the brain ([4]; mice injected with empty vesicles and then free tenofovir): not detected | half-life ([4]; brain, apparent half-life of tenofovir in the brain, mice pretreated with pyrido, tenofovir encapsulated in GLH-19 + GLH-20 vesicles, i.v.): ~40 min | half-life ([4]; serum, actual half-life of the encapsulated tenofovir in the blood, inferred, encapsulated tenofovir only 20% of injected): > 20 min | half-life ([4]; serum, half-life of tenofovir in the blood (apparent), mice i.v., total tenofovir 34 mg/kg of which 6.8 mg/kg encapsulated, reflects free and encapsulated tenofovir): ~20 min | persistence of tenofovir in the brain ([4]; tenofovir encapsulated in GLH-19 vesicles, i.v. mice): did not persist long in the brain
